Assay results taken from US12433903B2 (priority 2021, dated 2025).
“Also recorded” adds a separate entry of the source. Like-named read-outs stand apart in the source and are kept apart here.

Assays:
[1] = PK and Tmax after intraperitoneal administration; assay type: in vivo; conditions: male C57BL/6 mice; for Tmax: mouse, in vivo
Description: The purpose of this study was to determine the pharmacokinetics and time of maximum plasma (Tmax) of the test articles (TA) CBD and Compound 3 following intraperitoneal (IP) administration to male C57BL/6 mice. This method of TA delivery, dose and mouse strain was to be used in a subsequent Pentylenetetrazol (PTZ) induced seizure model for the evaluation of the TA's for anti-epileptic activity.

[2] = system: PTZ-induced seizure; test: PTZ-induced epilepsy (seizure) mouse model; assay type: in vivo; conditions: 100 mg/kg IP, CBD 60 minutes, Compound 3 30 minutes prior to PTZ 80 mg/kg; for Survival Effects: mortality rate compared to the vehicle/PTZ group: 30 minute observation
Description: Mouse models using GABAa receptor antagonist Pentylenetetrazol (PTZ) are well defined and used as a standard for the identification of potential anticonvulsants to treat generalized clonic seizures (Loscher et al., 1991 Epilepsy Res 8:171-189). The purpose of this study was to evaluate and compare CBD to test article Compound 3, on their therapeutic effects in a mouse model of PTZ-induced seizure. To match up test article plasma concentration time max (Tmax) with the PTZ induced seizures; test articles were administered at 60 minutes and 30 minutes prior to PTZ administration respectively. Vehicle used for treatment groups was 10% EtOH/10% Tween 80/80% Saline.
Mice were acclimated to the procedure room for at least 30 minutes. Pentylenetetrazole (PTZ; Sigma Aldrich) was formulated in water to a concentration of 16 mg/mL. Injections of PTZ were made at a volume of 5 mL/kg to produce a final dose of 80 mg/kg.
A 30-minute maximum latency to seizure was imposed. • Clinical behavior was scored using the following adapted Racine scale: • Score 0, no seizures observed • Score 1, Behavioral arrest (freezing, fixed gaze, staring), vibrissae twitching, mouth or facial clonus • Score 2, Pop or jump, straub tail, foot splay, head nodding • Score 3, Forelimb clonus, extended forelimbs, multiple pops or jerks • Score 4, Rearing and bilateral forelimb clonus, Running and running/bouncing • Score 5, All limb clonus, rearing and falling (stay fallen on rear side) • Score 6, Tonic hindlimb extensions, cardiac arrest
Behavior was scored by an observer blind to treatment. The highest score reached during every 5 minute period during the 30 minutes after PTZ was administered was recorded. Additionally, the percent tonic-clonic (number of animals progressing to the highest seizure score), and percent mortality was also calculated.

[3] = system: lipopolysaccharide (LPS)-induced inflammation; test: Anti-inflammatory activity in a rat LPS model (serum cytokines); assay type: in vivo, Sprague Dawley rats; conditions: PO QD x 4, LPS 5 mg/kg IP, 2 h after LPS
Method: This assay was employed to determine the efficacies of CBG, compound 1, and compound 2 against lipopolysaccharide (LPS)-induced inflammation in Sprague Dawley rats.
Eight- to 10-week-old male rats were treated with CBG, Compound 1, and Compound 2, or a positive control (cyclosporin A) for four days prior to treatment with LPS. Twenty-eight (28) Sprague Dawley male rats, 8-10 weeks old, were used for this study. Animals were randomized by weight into one of 7 treatment groups as shown in Table 10 below and treated for 4 days with either vehicle control (Groups 1 and 2), Cyclosporin A (Neoral) (Group 3), CBG at 30 mg/kg (Group 4), Compound 1 at 31.5 mg/kg (Group 5), Compound 2 at 32.7 mg/kg (Group 6) or CBG at 30 mg/kg (intraperitoneal/IP; Group 7). Groups 1-6 were dosed for 4 days by oral gavage; group 7 was dosed for 4 days by IP injection. After the 4th injection, Groups 2-7 received a single IP injection of LPS at 5 mg/kg to induce inflammation. Body weight was recorded every other day starting on the day of or day prior to the first day of treatment. A terminal body weight was recorded. General health and clinical signs were recorded once daily. Blood was collected to isolate immune cells at 2 hours after the LPS injection. […]
Serum samples (N=82) were processed and shipped to Inotiv Boulder for analysis. […] The samples were analyzed for cytokine levels using the RECYTMAG-65K Luminex™ kit. […]

[4] = PK study after oral (PO) or intraperitoneal (IP) administration; assay type: in vivo, male Sprague Dawley rats; conditions: CBG 30 mg/kg PO or IP; Compound 1 31.5 mg/kg PO; Compound 2 32.7 mg/kg PO
Method: This study evaluated the pharmacokinetics of (E)-2-(3,7-dimethylocta-2,6-dien-1-yl)-3-methoxy-5-pentylphenol (1) and (E)-2-(3,7-dimethylocta-2,6-dien-1-yl)-1,3-dimethoxy-5-pentylbenzene (2) following oral (PO) or intraperitoneal (IP) administration to male Sprague Dawley rats.
For the oral formulation the test article was added to the appropriate amount of Maisine and stirred until uniform. Next Labrasol was added to the formulation and allowed to stir until uniform. Finally, water will be slowly added to the stirring formulation to achieve the final volume.
For the IP formulation the test article was added to the appropriate amount of ethanol and stirred until uniform. Next, the appropriate amount of tween-20 was added to the stirred formulation. Finally, the appropriate amount of saline was slowly added to the stirred formulation to achieve the final volume.
Animals were fasted the evening prior to dosing with food returned at 4 h postdose, and the animals weighed on the morning of dose administration.
IP doses were administered via injection to the intraperitoneal region. PO doses were delivered into the stomach via syringe and gavage tube.
Blood was collected from via direct jugular stick or from the tail vein. Blood samples were kept on ice until being centrifuged at 3200 RPM for 10 minutes at ˜5° C. within 1 h of collection. Plasma was split into 2 cryovials in approximately equal volumes (0.05 mLs) and stored at −20° C.±5° C. until shipment.

[5] = system: indomethacin induced intestinal injury; test: Indomethacin-induced Crohn's disease in rats; assay type: in vivo
Method: The objective of this study was to determine the efficacy of Compound 1 and Compound 2 in a model of Crohn's disease (indomethacin induced intestinal injury) in rats.
The study design was identical for Compound 1 and Compound 2. On study day -3, rats were weighed and distributed into treatment groups based on body weight.
On study day 0, treatment was initiated and continue as indicated in the Study Design Tables below. Groups 2-6 received a subcutaneous injection of indomethacin (9 mg/kg, 1 ml/kg) in 5% sodium bicarbonate (Sterile Water). On study day 1, Groups 2-6 received a second subcutaneous injection of indomethacin (8 mg/kg, 1 ml/kg) in 5% sodium bicarbonate (Sterile Water). Live phase sample & data collection specifics are outlined below. On study day 4, animals will be euthanized, a section of the small intestine will be removed and weighed. Further necropsy sample and data collection is specified below. Overall efficacy of test articles will be based on body weight, small intestine weight (10 cm), small intestine gross score, and histopathology
At necropsy, the small intestines were evaluated visually and given a gross score according to the following criteria: 0=Normal. 0.5=Very Minimal thickening, multifocal in area at risk. 1=Minimal thickening, fairly diffuse in area at risk. 2=Mild to moderate small intestinal/mesenteric thickening throughout area at risk. 3=Moderate thickening with 1 or more definite adhesions that would be easy to separate. 4=Marked thickening with numerous hard to separate adhesions. 5=Severe intestinal lesion resulting in death.
Preserved 9-cm sections of small intestine were trimmed into 6 transverse sections collected at approximately equal intervals along the […] of the intestine, without bias toward lesion presence or absence. These trimmed sections were processed through graded alcohols and a clearing agent, infiltrated and embedded in paraffin, sectioned, and stained with hematoxylin and eosin (H&E).
Small intestine sections from all animals were examined microscopically by a board-certified veterinary pathologist, and observations were entered into a computer-assisted data retrieval system. Cross sections of small intestine were scored for inflammation and necrosis using the following criteria:
The area at risk for development of this lesion is generally approximately 30% of the total area of a cross section of small intestine where the mesentery attaches.
Inflammation is localized to the mesentery and intestinal area at risk for necrosis with slight extension on either side of it. […] In this case, inflammation is scored based on overall severity ranging from 0.5 (very minimal) to 5 (severe) without regard for the extent of necrosis. The mean score for necrosis and inflammation was calculated for each animal and these mean scores were then summed to arrive at a total score. Each section also has a measurement of total width of mucosal necrosis.

[6] = biological target: T1, UGT1A4 (Homo sapiens, UniProt P22310); test: UGT reaction phenotyping, UGT1A4; assay type: in vitro ADME; conditions: glucuronide formed from trifluoperazine 1 μM, printed in the half-life column with *
T1 construct: purchased BD Biosciences
T1 sequence (P22310 29-534): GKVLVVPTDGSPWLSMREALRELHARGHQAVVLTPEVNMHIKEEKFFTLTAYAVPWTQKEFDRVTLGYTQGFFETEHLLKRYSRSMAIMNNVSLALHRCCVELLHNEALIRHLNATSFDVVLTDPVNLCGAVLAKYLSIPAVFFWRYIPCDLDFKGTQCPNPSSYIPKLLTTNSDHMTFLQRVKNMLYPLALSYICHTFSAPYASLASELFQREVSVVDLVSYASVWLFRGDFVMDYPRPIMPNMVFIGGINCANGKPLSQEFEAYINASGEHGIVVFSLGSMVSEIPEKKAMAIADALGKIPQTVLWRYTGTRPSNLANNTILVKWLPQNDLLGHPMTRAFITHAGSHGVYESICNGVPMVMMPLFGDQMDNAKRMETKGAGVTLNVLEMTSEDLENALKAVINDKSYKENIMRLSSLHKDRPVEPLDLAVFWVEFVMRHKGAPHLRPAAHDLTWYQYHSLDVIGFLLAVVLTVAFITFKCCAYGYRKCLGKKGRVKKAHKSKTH
Description: Experimental Summary: UGT Reaction Phenotyping (7 Isoforms).

SMILES: C=C(C)[C@@H]1CCC(C)=C[C@H]1c1c(O)cc(CCCCC)cc1O [CBD, cannabidiol]
- Tmax ([1]; 100 mg/kg, IP): 60 min
- Latency to Clonic Seizure Event compared to PTZ alone [2]: did not yield a significantly different latency
- Latency to First Seizure Event compared to PTZ alone [2]: did not result in a difference in latency to first seizure
- Latency to Tonic Seizure Event compared to PTZ alone [2]: did not yield a significantly different latency
- Percent of animals reaching Tonic-clonic Stage 6 compared to PTZ alone [2]: did not yield a significantly difference in proportion; also recorded: did not yield a significant difference in proportion
- Racine scores over 5 minute intervals for 30 minutes compared to PTZ alone [2]: did not yield a significant change in clinical score
- Survival Effects: mortality rate compared to the vehicle/PTZ group [2]: did not yield a significantly reduced mortality rate

SMILES: CCCCCc1cc(OC)c(C/C=C(\C)CCC=C(C)C)c(OC)c1 [Compound 2, (E)-2-(3,7-dimethylocta-2,6-dien-1-yl)-1,3-dimethoxy-5-pentylbenzene]
- reduction of IL-1B and IFNy, performance relative to CBG [3]: equal to or better than CBG
- glucuronidation / glucuronide formation in plasma (in words) [4]: completely blocked glucuronide formation
- small intestine gross score compared to vehicle ([5]; Group 4 (Compound 1: 50 mg/kg PO)): trend in lower small intestine gross score
- reduction of necrosis width, of vehicle ([5]; Group 5): 99%
- histopathology scores vs vehicle and dexamethasone ([5]; Group 5 & 6): significantly lower
- necrosis width vs vehicle and dexamethasone ([5]; Group 5 & 6): significantly lower
- reduction of necrosis width, of vehicle ([5]; Group 6): 96%
- Histopathology scores vs vehicle (Group 2) ([5]; Groups 4-6): lower than the vehicle
- necrosis width vs vehicle (Group 2) ([5]; Groups 4-6): lower than the vehicle
- small intestine gross score compared to vehicle ([5]; Groups 5-6 (Compound 1: 200 and 800 mg/kg PO)): significant reductions in gross score
- small intestine weight compared to vehicle ([5]; all three treatment groups (Groups 4-6), PO days 0-3): significantly lower
- body weight change from Study Day -3 (preventing weight loss) ([5]; all treatment groups (Groups 4-6), PO days 0-3, in comparison to dexamethasone (Compound 2: and vehicle)): all trended towards or had significant differences in preventing weight loss

SMILES: C=C(C)[C@@H]1CCC(C)=C[C@H]1c1c(O)cc(CCCCC)cc1OC [Compound 3, (1′R,2′R)-6-methoxy-5′-methyl-4-pentyl-2′-(prop-1-en-2-yl)-1′,2′,3′,4′-tetrahydro-[1,1′-biphenyl]-2-ol]
- Cmax, fold greater than CBD ([1]; IP): 8 fold
- plasma PK Area Under the Curve (AUC), fold greater than CBD ([1]; IP): over 4 fold
- Tmax ([1]; plasma, 100 mg/kg IP, read-out: TMax (converted)): 30 min
- reduction of IL-1B and IFNy, performance relative to CBG [3]: equal to or better than CBG
- Latency to Clonic Seizure Event compared to PTZ alone [2]: did not yield a significantly different latency; also recorded: strong trend toward longer latency
- Latency to First Seizure Event compared to PTZ alone [2]: trended towards a longer latency
- Latency to Tonic Seizure Event compared to PTZ alone [2]: significantly longer latency
- Percent of animals reaching Tonic-clonic Stage 6 compared to PTZ alone [2]: significantly lower proportion
- Racine scores over 5 minute intervals for 30 minutes compared to PTZ alone [2]: significant improvement in Racine scores
- Survival Effects: mortality rate compared to the vehicle/PTZ group [2]: significantly reduced mortality rate

SMILES: C[N+]1([C@@H]2O[C@H](C(=O)[O-])[C@@H](O)[C@H](O)[C@H]2O)CCN(CCCN2c3ccccc3Sc3ccc(C(F)(F)F)cc32)CC1 [Trifluoperazine Glucuronide]
- average peak area ratio at 60 min/average peak area ratio at 0 min [6]: *6.38
